{"source": "patent US20160130278A1", "about": "(TAISHO PHARMACEUTICAL CO., LTD, priority 2013, published 2016)"}
{"molecular_target": "T1, human type 1 glycine transporter (GlyT1) (Homo sapiens, UniProt P48067)", "T1 construct": "T98G cells (glioma cells) expressing human type 1 glycine transporter (GlyT1) were used", "T1 sequence (P48067 1-706)": "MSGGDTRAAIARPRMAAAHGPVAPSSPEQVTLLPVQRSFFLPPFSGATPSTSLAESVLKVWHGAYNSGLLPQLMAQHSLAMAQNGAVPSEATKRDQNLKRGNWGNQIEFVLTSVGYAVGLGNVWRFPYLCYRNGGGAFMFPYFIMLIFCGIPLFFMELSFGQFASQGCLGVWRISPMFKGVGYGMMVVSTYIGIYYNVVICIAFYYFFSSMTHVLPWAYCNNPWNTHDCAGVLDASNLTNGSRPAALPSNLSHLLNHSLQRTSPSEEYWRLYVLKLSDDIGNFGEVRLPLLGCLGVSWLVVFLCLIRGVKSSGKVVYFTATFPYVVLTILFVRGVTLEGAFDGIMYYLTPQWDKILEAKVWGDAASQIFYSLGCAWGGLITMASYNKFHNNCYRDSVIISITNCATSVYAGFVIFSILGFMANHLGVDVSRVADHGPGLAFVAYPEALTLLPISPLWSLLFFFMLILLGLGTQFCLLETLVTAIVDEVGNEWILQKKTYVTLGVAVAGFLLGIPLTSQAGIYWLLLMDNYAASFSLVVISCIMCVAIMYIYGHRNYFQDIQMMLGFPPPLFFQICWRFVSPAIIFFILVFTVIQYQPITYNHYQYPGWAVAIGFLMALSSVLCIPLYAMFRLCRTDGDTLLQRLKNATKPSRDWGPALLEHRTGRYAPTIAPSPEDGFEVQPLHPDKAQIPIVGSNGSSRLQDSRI", "experiment": "Glycine uptake inhibition experiment ([3H]glycine uptake)", "type": "cell-based", "conditions": "GlyT1", "outline": "(§1)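 T98G glioma cells expressing human GlyT1 were pretreated 10 min with compound in HEPES buffer pH 7.4 (0.2% BSA), then incubated with compound plus 250 nM final [3H]glycine for 15 min at room temperature. Intracellular radioactivity was counted after NaOH lysis; 10 μM ALX5407 defined non-specific uptake. IC50 came from 10^−9–10^−5 M curves.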", "units": {"IC50": "nM"}}
{"smiles": "O=C(NC(c1cccc(Cl)n1)[C@]1(O)CC[C@@H](F)CC1)c1cc(C(F)(F)F)ncc1Cl", "note": "(single isomer, unassigned) [Compound 309, 5-chloro-N-[(6-chloropyridin-2-yl)(cis-4-fluoro-1-hydroxycyclohexyl)methyl]-2-(trifluoromethyl)pyridine-4-carboxamide]", "IC50": 550}
{"smiles": "O=C(NC(c1cccc(-c2cnn(CC(F)(F)F)c2)c1)C1(O)CCC(F)(F)CC1)c1nccc(C(F)(F)F)c1Cl", "note": "(single isomer, unassigned) [Compound 135, 3-chloro-N-[(4,4-difluoro-1-hydroxycyclohexyl){3-[1-(2,2,2-trifluoroethyl)-1H-pyrazol-4-yl]phenyl}methyl]-4-(trifluoromethyl)pyridine-2-carboxamide]", "IC50": 72}
{"smiles": "O=C(N[C@@H](c1cccc(-c2ncccn2)c1)C1(O)CCCC1)c1nccc(C(F)(F)F)c1Cl", "note": "[Compound 36, 3-chloro-N-{(S)-(1-hydroxycyclopentyl)[3-(pyrimidin-2-yl)phenyl]methyl}-4-(trifluoromethyl)pyridine-2-carboxamide]", "IC50": 130}
{"smiles": "O=C(NC(c1ccccc1F)[C@]1(O)CC[C@H](F)CC1)c1nccc(C(F)(F)F)c1Cl", "note": "(single isomer, unassigned) [Compound 240, 3-chloro-N-[(trans-4-fluoro-1-hydroxycyclohexyl)(2-fluorophenyl)methyl]-4-(trifluoromethyl)pyridine-2-carboxamide]", "IC50": 230}
{"smiles": "O=C(NC(c1cccc(F)c1)C1(O)CCC(F)(F)CC1)c1nccc(C(F)(F)F)c1Cl", "note": "(single isomer, unassigned) [Compound 77, 3-chloro-N-[(4,4-difluoro-1-hydroxycyclohexyl)(3-fluorophenyl)methyl]-4-(trifluoromethyl)pyridine-2-carboxamide]", "IC50": 1200}
{"smiles": "O=C(NC(c1cccnc1Cl)[C@]1(O)CC[C@@H](F)CC1)c1nccc2ccccc12", "note": "(single isomer, unassigned) [Compound 326, N-[(2-chloropyridin-3-yl)(cis-4-fluoro-1-hydroxycyclohexyl)methyl]isoquinoline-1-carboxamide]", "IC50": 1100}
{"smiles": "O=C(NC(c1cccc(F)c1F)C1(O)CCC(F)(F)CC1)c1ccnc(C(F)(F)F)c1Cl", "note": "(single isomer, unassigned) [Compound 165, 3-chloro-N-[(4,4-difluoro-1-hydroxycyclohexyl)(2,3-difluorophenyl)methyl]-2-(trifluromethyl)pyridine-4-carboxamide]", "IC50": 210}
{"smiles": "O=C(NC(c1cccc(Cl)n1)C1(O)CCCCC1)c1nccc(C(F)(F)F)c1Cl", "note": "(single isomer, unassigned) [Compound 384, 3-chloro-N-[(6-chloropyridin-2-yl)(1-hydroxycyclohexyl)methyl]-4-(trifluoromethyl)pyridine-2-carboxamide]", "IC50": 9.4}
{"smiles": "O=C(NC(c1ccc(Cl)nc1)C1(O)CCC(F)(F)CC1)c1nccc(C(F)(F)F)c1Cl", "note": "(single isomer, unassigned) [Compound 278, 3-chloro-N-[(6-chloropyridin-3-yl)(4,4-difluoro-1-hydroxycyclohexyl)methyl]-4-(trifluoromethyl)pyridine-2-carboxamide]", "IC50": 2700}
{"smiles": "O=C(NC(c1cccc(F)c1Cl)[C@]1(O)CC[C@@H](F)CC1)c1cc(Cl)cc(Cl)c1", "note": "(single isomer, unassigned) [Compound 253, 3,5-dichloro-N-[(2-chloro-3-fluorophenyl)(cis-4-fluoro-1-hydroxycyclohexyl)methyl]benzamide]", "IC50": 8300}
{"smiles": "O=C(NC(c1cccc(F)c1F)C1(O)CCC(F)CC1)c1nccc(C(F)(F)F)c1Cl", "note": "(single isomer, unassigned) [Compound 204, 3-chloro-N-[(2,3-difluorophenyl)(4-fluoro-1-hydroxycyclohexyl)methyl]-4-(trifluoromethyl)pyridine-2-carboxamide]", "IC50": 100}
{"smiles": "O=C(NC(c1cccc(F)c1)C1(O)CCCC1)c1nccc(C(F)(F)F)c1Cl", "note": "(single isomer, unassigned) [Compound 52, 3-chloro-N-[(3-fluorophenyl)(1-hydroxycyclopentyl)methyl]-4-(trifluoromethyl)pyridine-2-carboxamide]", "IC50": 100}
{"smiles": "CCn1cc(-c2cccc(C(NC(=O)c3cccc(Cl)c3C)C3(O)CCC(F)(F)CC3)c2)cn1", "note": "(centres unmarked) [Compound 124, 3-chloro-N-{(4,4-difluoro-1-hydroxycyclohexyl)[3-(1-ethyl-1H-pyrazol-4-yl)phenyl]methyl}-2-methylbenzamide]", "IC50": 310}
{"smiles": "O=C(NC(c1ccccc1F)[C@]1(O)CC[C@@H](F)CC1)c1nccc(C(F)(F)F)c1Cl", "note": "(single isomer, unassigned) [Compound 239, 3-chloro-N-[(cis-4-fluoro-1-hydroxycyclohexyl)(2-fluorophenyl)methyl]-4-(trifluoromethyl)pyridine-2-carboxamide]", "IC50": 390}
{"smiles": "O=C(NC(c1cccc(F)c1Cl)[C@]1(O)CC[C@@H](F)CC1)c1ccc(F)cc1Cl", "note": "(single isomer, unassigned) [Compound 307, 2-chloro-N-[(2-chloro-3-fluorophenyl)(cis-4-fluoro-1-hydroxycyclohexyl)methyl]-4-fluorobenzamide]", "IC50": 1300}
{"smiles": "O=C(NC(c1ccc(F)cc1)C1(O)CCCC1)c1nccc(C(F)(F)F)c1Cl", "note": "(centres unmarked) [Compound 39, 3-chloro-N-[(4-fluorophenyl)(1-hydroxycyclopentyl)methyl]-4-(trifluoromethyl)pyridine-2-carboxamide]", "IC50": 1000}
{"smiles": "O=C(NC(c1cccc(F)c1Cl)[C@]1(O)CC[C@@H](F)CC1)c1ncc(C(F)(F)F)cc1-n1nccn1", "note": "(single isomer, unassigned) [Compound 392, N-[(2-chloro-3-fluorophenyl)(cis-4-fluoro-1-hydroxycyclohexyl)methyl]-3-(2H-1,2,3-triazol-2-yl)-5-(trifluoromethyl)pyridine-2-carboxamide]", "IC50": 110}
{"smiles": "O=C(NC(c1ccccc1F)C1(O)CCCC1)c1nccc(C(F)(F)F)c1Cl", "note": "(single isomer, unassigned) [Compound 61, 3-chloro-N-[(2-fluorophenyl)(1-hydroxycyclopentyl)methyl]-4-(trifluoromethyl)pyridine-2-carboxamide]", "IC50": 3000}
{"smiles": "O=C(NC(c1cc(Cl)ccn1)[C@]1(O)CC[C@@H](F)CC1)c1nccc(C(F)(F)F)c1Cl", "note": "(single isomer, unassigned) [Compound 286, 3-chloro-N-[(4-chloropyridin-2-yl)(cis-4-fluoro-1-hydroxycyclohexyl)methyl]-4-(trifluoromethyl)pyridine-2-carboxamide]", "IC50": 140}
{"smiles": "O=C(NC(c1ccc(F)cc1Cl)C1(O)CCCC1)c1nccc(C(F)(F)F)c1Cl", "note": "(centres unmarked) [Compound 95, 3-chloro-N-[(2-chloro-4-fluorophenyl)(1-hydroxycyclopentyl)methyl]-4-(trifluoromethyl)pyridine-2-carboxamide]", "IC50": 130}
{"smiles": "CN(C(=O)c1nccc(C(F)(F)F)c1Cl)C(c1cccc(F)c1Cl)[C@]1(O)CC[C@@H](F)CC1", "note": "(single isomer, unassigned) [Compound 382, 3-chloro-N-[(2-chloro-3-fluorophenyl)(cis-4-fluoro-1-hydroxycyclohexyl)methyl]-N-methyl-4-(trifluoromethyl)pyridine-2-carboxamide]", "IC50": 740}
{"smiles": "CCn1cc(-c2cccc(C(NC(=O)c3ncc(Cl)cc3C(F)(F)F)C3(O)CCC(F)(F)CC3)c2)cn1", "note": "(centres unmarked) [Compound 206, 5-chloro-N-{(4,4-difluoro-1-hydroxycyclohexyl)[3-(1-ethyl-1H-pyrazol-4-yl)phenyl]methyl}-3-(trifluoromethyl)pyridine-2-carboxamide]", "IC50": 8700}
{"smiles": "O=C(NC(c1cccc(-n2nccn2)c1)C1(O)CCCC1)c1nccc(C(F)(F)F)c1Cl", "note": "(centres unmarked) [Compound 79, 3-chloro-N-{(1-hydroxycyclopentyl)[3-(2H-1,2,3-triazol-2-yl)phenyl]methyl}-4-(trifluoromethyl)pyridine-2-carboxamide]", "IC50": 310}
{"smiles": "Cc1cccc(C(=O)NC(c2cccc(F)c2Cl)[C@]2(O)CC[C@@H](F)CC2)c1Cl", "note": "(single isomer, unassigned) [Compound 287, 2-chloro-N-[(2-chloro-3-fluorophenyl)(cis-4-fluoro-1-hydroxycyclohexyl)methyl]-3-methylbenzamide]", "IC50": 960}
{"smiles": "O=C(NC(c1cccc(F)c1)C1(O)CCCCC1)c1nccc(C(F)(F)F)c1Cl", "note": "(centres unmarked) [Compound 63, 3-chloro-N-[(3-fluorophenyl)(1-hydroxycyclohexyl)methyl]-4-(trifluoromethyl)pyridine-2-carboxamide]", "IC50": 57}
{"molecular_target": "T1, human type 1 glycine transporter (GlyT1)", "experiment": "Glycine uptake inhibition experiment ([3H]glycine uptake)", "type": "cell-based", "conditions": "human GlyT1", "outline": "as §1", "units": {"IC50": "nM"}}
{"smiles": "CS(=O)(=O)c1nc(C(F)(F)F)ccc1C(=O)NC(c1ccccc1Cl)C1(O)CCC(F)(F)CC1", "note": "(single isomer, unassigned) [Compound 406, N-[(2-chlorophenyl)(4,4-difluoro-1-hydroxycyclohexyl)methyl]-2-(methylsulfonyl)-6-(trifluoromethyl)pyridine-3-carboxamide]", "IC50": 320}
